{
  "source": "paper PMC6193938",
  "about": "“Characterization of a novel AICARFT inhibitor which potently elevates ZMP and has anti-tumor activity in murine models” (Scientific Reports, 2018)",
  "key": {"[1]": {"target": "T1, KIT (Homo sapiens, UniProt P10721)", "T1 construct": "purchased CEREP Panlabs (Eurofins)", "T1 sequence (P10721 26-976)": "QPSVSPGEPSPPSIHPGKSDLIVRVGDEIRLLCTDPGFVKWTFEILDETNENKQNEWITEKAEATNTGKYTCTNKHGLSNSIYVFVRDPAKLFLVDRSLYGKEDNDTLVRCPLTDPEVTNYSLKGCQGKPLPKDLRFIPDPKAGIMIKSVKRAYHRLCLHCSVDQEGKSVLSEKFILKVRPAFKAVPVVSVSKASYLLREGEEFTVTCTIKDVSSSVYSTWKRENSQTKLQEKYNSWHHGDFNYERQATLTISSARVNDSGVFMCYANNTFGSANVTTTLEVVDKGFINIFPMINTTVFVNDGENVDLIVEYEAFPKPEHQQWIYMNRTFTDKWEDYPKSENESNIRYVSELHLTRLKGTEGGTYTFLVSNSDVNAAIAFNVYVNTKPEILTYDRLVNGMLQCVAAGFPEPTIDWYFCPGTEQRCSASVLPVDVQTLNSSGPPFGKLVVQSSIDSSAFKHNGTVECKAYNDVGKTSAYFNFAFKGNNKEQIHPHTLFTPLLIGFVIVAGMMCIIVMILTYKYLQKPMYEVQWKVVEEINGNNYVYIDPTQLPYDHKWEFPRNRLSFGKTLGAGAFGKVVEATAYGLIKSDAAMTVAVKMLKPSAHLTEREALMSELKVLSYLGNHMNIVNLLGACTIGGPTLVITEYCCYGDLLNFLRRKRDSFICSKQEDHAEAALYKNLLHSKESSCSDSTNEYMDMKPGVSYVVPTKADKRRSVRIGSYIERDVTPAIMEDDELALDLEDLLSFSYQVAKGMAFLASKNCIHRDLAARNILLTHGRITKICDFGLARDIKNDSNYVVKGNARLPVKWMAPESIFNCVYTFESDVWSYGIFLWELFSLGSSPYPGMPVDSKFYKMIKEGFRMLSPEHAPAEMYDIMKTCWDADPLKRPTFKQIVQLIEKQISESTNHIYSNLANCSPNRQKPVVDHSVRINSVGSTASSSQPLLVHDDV", "assay": "CEREP protein kinase assay", "type": "biochemical"}, "[2]": {"target": "T2, CHK1 (Homo sapiens, UniProt O14757)", "T2 construct": "purchased CEREP Panlabs (Eurofins)", "T2 sequence (O14757 1-476)": "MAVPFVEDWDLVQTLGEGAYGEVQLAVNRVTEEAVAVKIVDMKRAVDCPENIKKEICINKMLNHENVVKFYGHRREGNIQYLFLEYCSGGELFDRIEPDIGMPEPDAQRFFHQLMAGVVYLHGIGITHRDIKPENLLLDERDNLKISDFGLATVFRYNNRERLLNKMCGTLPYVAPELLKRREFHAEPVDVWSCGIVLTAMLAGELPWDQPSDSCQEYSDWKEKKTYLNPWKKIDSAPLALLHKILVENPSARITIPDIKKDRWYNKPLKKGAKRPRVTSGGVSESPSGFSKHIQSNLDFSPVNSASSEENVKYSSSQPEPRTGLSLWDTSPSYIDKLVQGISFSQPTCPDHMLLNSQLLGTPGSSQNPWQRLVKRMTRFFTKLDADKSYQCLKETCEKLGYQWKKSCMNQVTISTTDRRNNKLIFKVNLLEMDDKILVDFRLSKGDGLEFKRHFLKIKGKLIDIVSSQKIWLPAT", "assay": "CEREP protein kinase assay", "type": "biochemical"}, "[3]": {"target": "T3, MAPKAPK5 (Homo sapiens, UniProt Q8IW41)", "T3 construct": "purchased CEREP Panlabs (Eurofins)", "T3 sequence (Q8IW41 1-473)": "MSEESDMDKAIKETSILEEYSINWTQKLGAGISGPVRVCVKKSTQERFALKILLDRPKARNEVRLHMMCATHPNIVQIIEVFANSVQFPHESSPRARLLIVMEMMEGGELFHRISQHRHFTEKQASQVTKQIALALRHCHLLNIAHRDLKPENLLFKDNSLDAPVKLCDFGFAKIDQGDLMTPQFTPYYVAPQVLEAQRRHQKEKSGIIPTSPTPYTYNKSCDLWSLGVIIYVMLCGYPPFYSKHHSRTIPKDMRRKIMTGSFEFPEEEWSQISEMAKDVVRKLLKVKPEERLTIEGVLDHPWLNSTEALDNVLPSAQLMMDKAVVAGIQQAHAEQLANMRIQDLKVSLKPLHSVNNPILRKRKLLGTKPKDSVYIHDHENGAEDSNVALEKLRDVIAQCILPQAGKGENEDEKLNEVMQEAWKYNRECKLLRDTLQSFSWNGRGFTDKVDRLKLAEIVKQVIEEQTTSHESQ", "assay": "CEREP protein kinase assay", "type": "biochemical"}, "[4]": {"test_system": "MDA-MB-231 (mammary)", "assay": "MS detection of ZMP in cultured cells", "type": "cell-based, human", "conditions": "for EC50: Homo sapiens, 16 hours", "experimental": "(§1) Cells lines were acquired from cell banks, see supplemental material, grown using the cell banks recommended culture conditions (Supplemental Table 3). In some experiments noted “low folate” the cells were washed and grown in folate free RPMI-1640 media (Gibco #27016-021) supplemented with 5 ml 1 M Hepes, 5 ml 100 mM Na pyruvate, 2.5 mg/ml glucose and 10% defined FBS (Hyclone #SH30070) per 500 mL media for 5–7 days to deplete intracellular folate levels prior to the start of the experiment. Where noted, cells were maintained in complete “high folate” RPMI-1640 media (ATCC #30-2001) with 10% defined FBS to contrast with the low folate conditions.\n(§2) ZMP was detected in cultured cells via mass spec analysis. Cells were plated in 96-well plates at 25,000 cells per well in 100 µL with either high or low folate RPMI media and incubated overnight at 37 °C with 5% CO2. Cells were treated with inhibitor compounds for 16 hours, 0.5% DMSO final concentration. Growth media was decanted and cells were lysed for 10 min at room temperature with 50 µL per well of 1x Sure Fire Lysis buffer (Perkin Elmer, SureFire kit component). Aliquots (40 µL) of standard or sample were combined in a deep 96-well plate with 160 µL of internal standard solution containing ^13C5-ZMP (custom synthesis) and ^13C5-AICAr (custom synthesis) at 100 ng/mL in 40 mM ammonium acetate, pH 4. 400 µL of dichloromethane was added to each sample. Samples were sealed, vortexed for 5 minutes, and placed in the refrigerator for at least 30 minutes. The samples were centrifuged at 4 °C for 10 minutes at 16,600 g. 75 µL of the aqueous layer were transferred to a clean 96-well plate and seal prior to analysis.\n(§3) The LC-MS method utilizes a Shimadzu Prominence 20 A HPLC system connected to an AB Sciex 5500™ or an AB Sciex 6500™ triple quadrupole mass spectrometer. Extracted samples were separated using a Thermo Hypercarb™ Javelin guard column (2.1 × 20 mm, 5 µm) with an injection volume of 15 µL and a flow rate of 1 mL/minute.\n(§4) ZMP, AICAr and dUMP were detected using positive ion TurboIonSpray® multiple reaction monitoring mode and the data were processed with AB Sciex MultiQuant™. Back-calculated ZMP concentrations were fit to a four-parameter logistic equation using ACTIVITYBASE 4.0 to determine EC50 values relative to the maximum observed metabolite levels."}, "[5]": {"test_system": "NCI-H460 (lung)", "assay": "MS detection of ZMP in cultured cells", "type": "cell-based, human", "conditions": "for EC50: 16 hours; for peak intracellular ZMP levels: NCI-H460 cells, calculated with 4 pL cell volume", "experimental": "as §1, §2, §3, §4"}, "[6]": {"target": "T4, CDK7 (Homo sapiens, UniProt P50613)", "T4 construct": "purchased CEREP Panlabs (Eurofins)", "T4 sequence (P50613 whole entry)": "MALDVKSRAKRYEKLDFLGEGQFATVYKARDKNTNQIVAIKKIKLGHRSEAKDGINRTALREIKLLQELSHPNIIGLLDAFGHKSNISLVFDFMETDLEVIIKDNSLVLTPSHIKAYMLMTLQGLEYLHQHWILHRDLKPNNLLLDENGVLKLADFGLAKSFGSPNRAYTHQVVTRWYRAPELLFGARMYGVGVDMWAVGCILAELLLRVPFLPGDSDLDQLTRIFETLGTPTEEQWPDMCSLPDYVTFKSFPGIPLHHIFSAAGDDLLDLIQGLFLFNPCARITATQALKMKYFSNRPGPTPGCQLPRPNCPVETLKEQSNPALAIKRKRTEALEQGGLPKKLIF", "T4 sequence (P51946 whole entry partner)": "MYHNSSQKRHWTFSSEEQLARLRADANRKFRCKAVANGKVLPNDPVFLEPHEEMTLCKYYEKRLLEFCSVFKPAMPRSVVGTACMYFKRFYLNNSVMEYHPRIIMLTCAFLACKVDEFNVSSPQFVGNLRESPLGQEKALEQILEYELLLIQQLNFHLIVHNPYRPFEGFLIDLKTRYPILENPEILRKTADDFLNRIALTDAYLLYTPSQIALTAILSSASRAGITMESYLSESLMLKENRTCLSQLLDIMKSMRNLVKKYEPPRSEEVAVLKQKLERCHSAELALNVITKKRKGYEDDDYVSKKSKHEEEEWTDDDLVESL", "T4 sequence (P51948 whole entry partner)": "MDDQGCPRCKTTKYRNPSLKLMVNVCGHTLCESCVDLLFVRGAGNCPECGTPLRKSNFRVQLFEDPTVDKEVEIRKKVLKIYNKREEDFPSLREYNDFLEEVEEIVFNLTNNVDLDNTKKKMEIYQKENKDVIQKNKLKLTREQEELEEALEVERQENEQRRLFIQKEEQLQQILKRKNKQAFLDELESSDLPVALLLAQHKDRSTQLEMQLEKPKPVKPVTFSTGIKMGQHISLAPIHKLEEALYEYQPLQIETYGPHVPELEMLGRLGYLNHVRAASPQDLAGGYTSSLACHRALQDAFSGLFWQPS", "assay": "CEREP protein kinase assay", "type": "biochemical"}},
  "note": "Where two headings read alike, the source gives them in different places.",
  "data": [
    {"molecule": "O=c1[nH]ccc2cc(F)c(NS(=O)(=O)c3ccc(N4CC[C@@H](O)C4)s3)cc12", "note": "[LSN3213128, N-(6-Fluoro-1-oxo-1,2-dihydroisoquinolin-7-yl)-5-[(3R)-3-hydroxypyrrolidin-1-yl]thiophene-2-sulfonamide]", "values": [
      {"measurement": "inhibition at 0.2 µM", "setting": "[1]; @ 0.2 uM", "value": -6.65, "unit": "%"},
      {"measurement": "inhibition at 2 µM", "setting": "[1]; @ 2 uM", "value": 6.65, "unit": "%"},
      {"measurement": "inhibition at 20 µM", "setting": "[1]; @ 20 uM", "value": 42, "unit": "%"},
      {"measurement": "inhibition at 0.2 µM", "setting": "[2]; @ 0.2 uM", "value": -8.96, "unit": "%"},
      {"measurement": "inhibition at 2 µM", "setting": "[2]; @ 2 uM", "value": 14.5, "unit": "%"},
      {"measurement": "inhibition at 20 µM", "setting": "[2]; @ 20 uM", "value": 5.24, "unit": "%"},
      {"measurement": "inhibition at 0.2 µM", "setting": "[3]; @ 0.2 uM", "value": 3.51, "unit": "%"},
      {"measurement": "inhibition at 2 µM", "setting": "[3]; @ 2 uM", "value": 13.3, "unit": "%"},
      {"measurement": "inhibition at 20 µM", "setting": "[3]; @ 20 uM", "value": -3.2, "unit": "%"},
      {"measurement": "EC50", "setting": "[4]; RPMI media, read-out: ZMP EC50 Regular folate", "value": 89, "unit": "nM"},
      {"measurement": "EC50", "setting": "[4]; low folate RPMI media, read-out: ZMP EC50 Low folate", "value": 7.6, "unit": "nM"},
      {"measurement": "dUMP levels in tissue culture", "setting": "[4]; data not shown", "value": "does not alter"},
      {"measurement": "EC50", "setting": "[5]; Homo sapiens, NCI-H460, 16 h, NCI-H460, RPMI media, read-out: ZMP EC50 Regular folate", "value": 438, "unit": "nM"},
      {"measurement": "EC50", "setting": "[5]; Homo sapiens, NCI-H460, 16 h, NCI-H460, low folate RPMI media, read-out: ZMP EC50 Low folate", "value": 8, "unit": "nM"},
      {"measurement": "EC50", "setting": "[5]; NCI-H460, RPMI media, read-out: ZMP EC50 Regular folate", "value": "428 ± 102", "unit": "nM"},
      {"measurement": "dUMP levels in tissue culture", "setting": "[5]; NCI-H460, data not shown", "value": "does not alter"},
      {"measurement": "peak intracellular ZMP levels", "setting": "[5]; low folate media", "value": 540, "unit": "µM"},
      {"measurement": "peak intracellular ZMP levels", "setting": "[5]; regular RPMI", "value": "about 2,700 μM"},
      {"measurement": "inhibition at 0.2 µM", "setting": "[6]; @ 0.2 uM", "value": -17, "unit": "%"},
      {"measurement": "inhibition at 2 µM", "setting": "[6]; @ 2 uM", "value": 2.91, "unit": "%"},
      {"measurement": "inhibition at 20 µM", "setting": "[6]; @ 20 uM", "value": 15, "unit": "%"}
    ]}
  ]
}
